How the values were obtained:
[1] = biological target: T1, partially purified human liver MPD (mevalonate pyrophosphate decarboxylase) (Homo sapiens, UniProt P53602); assay: Inhibition of partially purified human liver MPD by phenylglyoxal; assay type: biochemical; details: partially purified enzyme; no concentration stated
T1 construct: from tissue; host or cells: human liver
T1 sequence (P53602 1-400): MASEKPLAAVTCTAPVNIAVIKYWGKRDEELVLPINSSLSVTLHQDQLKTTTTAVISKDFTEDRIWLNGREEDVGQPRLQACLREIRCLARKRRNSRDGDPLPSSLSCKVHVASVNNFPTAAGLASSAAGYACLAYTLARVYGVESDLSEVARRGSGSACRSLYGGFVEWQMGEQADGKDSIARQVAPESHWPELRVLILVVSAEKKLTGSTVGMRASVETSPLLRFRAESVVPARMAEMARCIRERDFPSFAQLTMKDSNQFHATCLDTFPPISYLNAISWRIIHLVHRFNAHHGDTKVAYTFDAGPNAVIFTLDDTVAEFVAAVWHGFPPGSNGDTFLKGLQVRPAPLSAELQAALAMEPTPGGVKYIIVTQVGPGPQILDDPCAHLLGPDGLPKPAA
Text: This agrees with the work of Jabalquinto et al., (1983) Arch. Biochem. Biophys. […] They concluded that a single arginine is near the binding site of ATP and MevPP in the chicken liver enzyme. To this end, the Arg27Lys and Arg153Lys mutants were made using the AAA lysine codon triplet and a single-stranded DNA template isolated from pO-3. These mutated cDNAs were subcloned into pET14-b and expressed like p11-4 as described above. […] The Arg27Lys mutant appears to produce lower activity compared to the parent plasmid ([…]) from which it was derived, but this may not be a significant difference. […] Antisera against MPD for the Westerns was made with material expressed in E. coli from plasmid p11-4.
Cell pellets from the various expression systems were sonicated in homogenization buffer (20 mM Tris/HCl pH 7.5, 15 mM EDTA, 15 mM EGTA, 100 μM Leupeptin, 0.75 mg/l Aprotinin, 0.1 mM PMSF) and assayed directly for enzyme activity and protein concentration. Activity was measured as the conversion of labelled mevalonate pyrophosphate into isopentenyl pyrophosphate. […] 2 ml of Econofluor-2 (New England Nuclear) was added to the assay mixture the sample was capped, shaken, and counted on a scintillation counter. Because of the organic nature of the scintillation fluid, dephosphorylated product (isopentenyl) is solubilized and counted whereas dephosphorylated substrate (mevalonic acid) is not. […]

[2] = tested on: chicken liver MPD (mevalonate pyrophosphate decarboxylase); details: pseudo-first order kinetics; ATP and MevPP protect against inactivation; cited from earlier work

## O=CC(=O)c1ccccc1 [phenylgloxal]
[1]
  inhibition of MPD: inhibited
[2]
  inactivation of MPD: inactivated
